Experimental data published in patent US8778889B2, “Antimicrobial decapeptide oral hygiene treatment” (The United States of America as represented by the …, priority 2003, dated 2014).
Converted amounts (≈) assume the structure as drawn. Square brackets hold non-standard residues; d marks the D form. Peptide text beside a SMILES is read from it. αMeK = C[C@](N)(CCCCN)C(=O)O

Columns and labels:
A. baumannii WRAMC #11 = type: cell-based, Acinetobacter baumannii
Source text: (§1) As shown in the table below, many drug-resistant pathogens including multidrug-resistant Acinetobacter baumannii (clinical isolates) were susceptible to the bactericidal activity of the newly developed antimicrobial peptides. […] This is shown by their lower MIC and MBC against a number of antibiotic-resistant bacteria including methicillin-resistant Staphylococcus aureus, vancomycin-resistant Enterococci, and multidrug-resistant Acinetobacter baumannii. Many of these resistant strains are involved in nosocomial infections, which affect the immunocompromised and the elderly individuals with weakened defenses. The tests were done in a broth microdilution assay as described in our earlier publication (Concannon et al., 2003).

A. baumannii WRAMC #13 = type: cell-based, Acinetobacter baumannii
Source text: as §1

A. baumannii WRAMC #14 = type: cell-based, Acinetobacter baumannii
Source text: as §1

A. baumannii WRAMC #16 = type: cell-based, Acinetobacter baumannii
Source text: as §1

A. baumannii WRAMC #17 = type: cell-based, Acinetobacter baumannii
Source text: as §1

A. baumannii WRAMC #18 = type: cell-based, Acinetobacter baumannii
Source text: as §1

A. baumannii WRAMC #2 = type: cell-based, Acinetobacter baumannii
Source text: as §1

A. baumannii WRAMC #4 = type: cell-based, Acinetobacter baumannii
Source text: as §1

A. baumannii WRAMC #5 = type: cell-based, Acinetobacter baumannii
Source text: as §1

A. baumannii WRAMC #8 = type: cell-based, Acinetobacter baumannii
Source text: as §1

MRSA ATCC #33591 = type: cell-based, Staphylococcus aureus
Source text: as §1

MRSA ATCC #43300 = type: cell-based, Staphylococcus aureus
Source text: as §1

MRSA VVRAMC #10 = type: cell-based, Staphylococcus aureus
Source text: as §1

MRSA VVRAMC #1 = type: cell-based, Staphylococcus aureus
Source text: as §1

MRSA WRAMC #12 = type: cell-based, Staphylococcus aureus
Source text: as §1

MRSA WRAMC #9 = type: cell-based, Staphylococcus aureus
Source text: as §1

A. baumannii ATCC #19606 = type: cell-based, Acinetobacter baumannii
Source text: as §1

A. baumannii WRAMC #15 = type: cell-based, Acinetobacter baumannii
Source text: as §1

A. baumannii WRAMC #19 = type: cell-based, Acinetobacter baumannii
Source text: as §1

VRE ATCC #51299 = type: cell-based, Enterococci
Source text: as §1

VRE VVRAMC #7 = type: cell-based, Enterococci
Source text: as §1

VRE WRAMC #3 = type: cell-based, Enterococci
Source text: as §1

VRE WRAMC #6 = type: cell-based, Enterococci
Source text: as §1

| Compound | MBC (A. baumannii WRAMC #11) [µg/mL] | MBC (A. baumannii WRAMC #13) [µg/mL] | MBC (A. baumannii WRAMC #14) [µg/mL] | MBC (A. baumannii WRAMC #16) [µg/mL] | MIC (A. baumannii WRAMC #16) [µg/mL] | MBC (A. baumannii WRAMC #17) [µg/mL] | MIC (A. baumannii WRAMC #17) [µg/mL] | MBC (A. baumannii WRAMC #18) [µg/mL] | MBC (A. baumannii WRAMC #2) [µg/mL] | MBC (A. baumannii WRAMC #4) [µg/mL] | MIC (A. baumannii WRAMC #4) [µg/mL] | MBC (A. baumannii WRAMC #5) [µg/mL] | MBC (A. baumannii WRAMC #8) [µg/mL] | MBC (MRSA ATCC #33591) [µg/mL] | MIC (MRSA ATCC #33591) [µg/mL] | MBC (MRSA ATCC #43300) [µg/mL] | MIC (MRSA ATCC #43300) [µg/mL] | MBC (MRSA VVRAMC #10) [µg/mL] | MIC (MRSA VVRAMC #10) [µg/mL] | MBC (MRSA VVRAMC #1) [µg/mL] | other results |
| --- | --- | --- | --- | --- | --- | --- | --- | --- | --- | --- | --- | --- | --- | --- | --- | --- | --- | --- | --- | --- | --- |
| CC(C)[C@H](NC(=O)[C@H](CCCCN)NC(=O)[C@@H](N)CCCCN)C(=O)N[C@H](C(=O)N[C@@H](Cc1ccccc1)C(=O)N[C@@](C)(CCCCN)C(=O)N[C@H](C(=O)N[C@@H](CCCCN)C(=O)N[C@@H](Cc1ccccc1)C(=O)N[C@@H](CCCCN)C(N)=O)C(C)C)C(C)C [KSL-M, NH2-Lys-Lys-Val-Val-Phe-Lys(me)-Val-Lys-Phe-Lys-CONH2] (H-KKVVF[αMeK]VKFK-NH2) | 100 (≈ 79.1 µM) | 200 (≈ 158 µM) | 200 (≈ 158 µM) | 100 (≈ 79.1 µM) | 50 (≈ 39.6 µM) | 200 (≈ 158 µM) | 100 (≈ 79.1 µM) | 100 (≈ 79.1 µM) | 200 (≈ 158 µM) | 50 (≈ 39.6 µM) | 25 (≈ 19.8 µM) | 50 (≈ 39.6 µM) | >200 | >200 | >200 | >200 | >200 | >200 | >200 | >200 | MIC (A. baumannii WRAMC #8): >200 µg/mL; MIC (MRSA VVRAMC #1): >200 µg/mL; MBC (MRSA WRAMC #12): >200 µg/mL; MIC (MRSA WRAMC #12): >200 µg/mL; MBC (MRSA WRAMC #9): >200 µg/mL; MIC (MRSA WRAMC #9): >200 µg/mL |
| H-DDDEEKFLRRIGRYGKKVVFWVKFK-NH2 [H1-2] | 50 | 50 | 50 | 25 | 12.5 | 100 | 25 | 25 | 200 | 50 | 25 | 25 | 25 | 12.5 | 3.125 | 12.5 | 3.125 | 25 | 1.56 | 25 | MBC (A. baumannii ATCC #19606): 25 µg/mL; MIC (A. baumannii ATCC #19606): 12.5 µg/mL; MIC (A. baumannii WRAMC #11): 25 µg/mL; MBC (A. baumannii WRAMC #15): 50 µg/mL; MIC (A. baumannii WRAMC #15): 25 µg/mL; MBC (A. baumannii WRAMC #19): 200 µg/mL; MIC (A. baumannii WRAMC #2): 25 µg/mL; MBC (MRSA WRAMC #12): 6.25 µg/mL; MIC (MRSA WRAMC #12): 3.125 µg/mL; MBC (MRSA WRAMC #9): 3.125 µg/mL; MBC (VRE ATCC #51299): 50 µg/mL; MIC (VRE ATCC #51299): 12.5 (25) μg/ml; MIC (VRE VVRAMC #7): <1.56 µg/mL; MBC (VRE VVRAMC #7; VRE VVRAMC #7): 0 µg/mL; MBC (VRE WRAMC #3): 25 µg/mL; MIC (VRE WRAMC #3): 6.25 µg/mL; MBC (VRE WRAMC #6): 6.25 µg/mL; MIC (VRE WRAMC #6): <1.56 µg/mL |
